From the supplement of paper PMC10307832

Tests used:
Experiment in all cases: relative viability (nuclei count vs DMSO), 5 days (fraction); higher = more cells survive
Bortezomib + Olaparib = compound: CC(C)C[C@H](NC(=O)[C@H](Cc1ccccc1)NC(=O)c1cnccn1)B(O)O [Bortezomib] + O=C(c1cc(Cc2n[nH]c(=O)c3ccccc23)ccc1F)N1CCN(C(=O)C2CC2)CC1 [Olaparib] (partner 8 µM)
Outline: (§1)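 Medians of duplicate plates are given as relative viability. That measure is the nuclei count in treated wells divided by the count in vehicle wells. Counts were taken on 4× images of lung cancer cell lines in 1536-well plates, 5 days after pin-tool dosing the day after seeding with one drug alone or a fixed anchor-drug dose plus five library-drug doses (not always all listed) in √10 steps.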

Bortezomib + Pemetrexed = compound: CC(C)C[C@H](NC(=O)[C@H](Cc1ccccc1)NC(=O)c1cnccn1)B(O)O [Bortezomib] + Nc1nc2[nH]cc(CCc3ccc(C(=O)N[C@@H](CCC(=O)O)C(=O)O)cc3)c2c(=O)[nH]1 [Pemetrexed] (partner 0.2 µM)
Outline: as §1

[1] = compound: CC1=CC(=NN1)NC2=CC(=NC(=N2)/C=C/C3=CC=CC=C3)N4CCN(CC4)C + N=C(N)NC(=N)NCCc1ccccc1 [Phenformin] (partner 250 µM)
Outline: as §1

Obatoclax + Crizotinib = compound: COC1=CC(c2cc3ccccc3[nH]2)=N/C1=C\c1[nH]c(C)cc1C [Obatoclax] + C[C@@H](Oc1cc(-c2cnn(C3CCNCC3)c2)cnc1N)c1c(Cl)ccc(F)c1Cl [Crizotinib] (partner 1 µM)
Outline: as §1

Cell Line | relative viability (Bortezomib + Olaparib; first compound 0.0002 µM) | relative viability (Bortezomib + Olaparib; first compound 0.000632 µM) | relative viability (Bortezomib + Olaparib; first compound 0.002 µM) | relative viability (Bortezomib + Olaparib; first compound 0.006325 µM) | relative viability (Bortezomib + Olaparib; first compound 0.02 µM) | relative viability (Bortezomib + Pemetrexed; first compound 0.0002 µM) | relative viability (Bortezomib + Pemetrexed; first compound 0.000632 µM) | relative viability (Bortezomib + Pemetrexed; first compound 0.002 µM) | relative viability (Bortezomib + Pemetrexed; first compound 0.006325 µM) | relative viability (Bortezomib + Pemetrexed; first compound 0.02 µM) | relative viability ([1]; first compound 0.08 µM) | relative viability ([1]; first compound 0.253 µM) | relative viability ([1]; first compound 0.8 µM) | relative viability ([1]; first compound 2.53 µM) | relative viability ([1]; first compound 8 µM) | relative viability (Obatoclax + Crizotinib; first compound 0.01 µM) | relative viability (Obatoclax + Crizotinib; first compound 0.03162 µM) | relative viability (Obatoclax + Crizotinib; first compound 0.1 µM) | relative viability (Obatoclax + Crizotinib; first compound 0.3162 µM) | relative viability (Obatoclax + Crizotinib; first compound 1 µM)
NCI-H358 | 0.773 | 0.541 | 0.46 | 0.0684 | 0.076 | 0.163 | 0.182 | 0.171 | 0.104 | 0.0993 | 0.272 | 0.377 | 0.229 | 0.0644 | 0.0549 | 0.46 | 0.57 | 0.592 | 0.374 | 0.352
SW 1573 | 0.421 | 0.408 | 0.319 | 0.0537 | 0.0441 | 0.844 | 0.993 | 0.76 | 0.0663 | 0.0512 | 0.412 | 0.337 | 0.319 | 0.152 | 0.0862 | 0.781 | 0.749 | 0.843 | 0.861 | 0.483
NCI-H1993 | 1.01 | 1.01 | 0.679 | 0.363 | 0.398 | 0.701 | 0.585 | 0.627 | 0.395 | 0.391 | 0.462 | 0.492 | 0.427 | 0.498 | 0.437 | 0.922 | 0.916 | 1.02 | 0.932 | 0.986
NCI-H661 | 0.745 | 0.69 | 0.78 | 0.376 | 0.213 | 0.887 | 0.89 | 0.88 | 0.594 | 0.23 | 0.282 | – | 0.265 | 0.226 | 0.211 | 0.851 | – | – | – | 1.03
UMC-11 | 0.441 | 0.398 | 0.348 | 0.189 | 0.133 | 0.694 | 0.875 | 0.745 | 0.39 | 0.17 | 0.348 | 0.289 | 0.279 | 0.137 | 0.131 | 0.671 | 0.615 | 0.53 | 0.682 | 0.346
NCI-H520 | 0.333 | 0.334 | 0.218 | 0.117 | 0.116 | 0.511 | 0.785 | 0.3 | 0.17 | 0.139 | 0.655 | 0.62 | 0.603 | 0.23 | 0.172 | 0.781 | 0.777 | 0.774 | 0.628 | 0.461
ChaGo-K-1 | 0.387 | 0.385 | 0.432 | 0.151 | 0.115 | 0.265 | 0.238 | 0.249 | 0.267 | 0.192 | 0.482 | 0.442 | 0.434 | 0.151 | 0.121 | 1.26 | 0.996 | – | 1.15 | 1.02
NCI-H2085 | 0.8 | 0.802 | 0.688 | 0.232 | 0.211 | 0.827 | 0.873 | 0.991 | 0.403 | 0.206 | 0.653 | 0.769 | 0.679 | 0.279 | 0.236 | 0.961 | 0.865 | 0.791 | 0.798 | 0.334
NCI-H1651 | 0.181 | 0.194 | 0.144 | 0.0868 | 0.0799 | 0.603 | 0.618 | 0.565 | 0.594 | 0.362 | 0.355 | 0.346 | 0.312 | 0.124 | 0.112 | 0.906 | 0.831 | 0.863 | 0.89 | 0.891
RERF-LC-KJ | 0.803 | 1.02 | 0.728 | 0.286 | 0.199 | 0.673 | 0.459 | 0.464 | 0.347 | 0.358 | 0.417 | 0.457 | 0.372 | 0.256 | 0.245 | 0.739 | 0.821 | 0.804 | 0.794 | 0.749
NCI-H1703 | 0.417 | 0.318 | 0.123 | 0.0785 | 0.0739 | – | – | – | – | – | – | – | – | – | – | 0.762 | 0.697 | 0.394 | 0.348 | 0.311
NCI-H522 | 0.62 | 0.618 | 0.744 | 0.347 | 0.313 | 1.29 | 1.04 | 1.08 | 0.442 | 0.35 | 0.664 | 0.632 | 0.712 | 0.544 | 0.484 | – | – | – | – | –
NCI-H1563 | – | – | – | – | – | 0.885 | 0.848 | 0.744 | 0.809 | 0.575 | 0.726 | 0.659 | 0.664 | 0.592 | 0.43 | 0.786 | 0.864 | 0.881 | 0.906 | 0.653
NCI-H1623 | – | – | – | – | – | – | – | – | – | – | 0.6 | 0.615 | 0.583 | 0.563 | 0.343 | – | – | – | – | –
NCI-H2342 | 0.514 | 0.503 | 0.382 | 0.473 | 0.273 | 0.801 | 0.783 | 0.739 | 0.752 | 0.712 | 0.523 | 0.597 | 0.565 | 0.604 | 0.245 | – | – | – | – | –
IA-LM | 0.765 | 0.824 | 0.791 | 0.0665 | 0.0149 | – | – | – | – | – | – | – | – | – | – | 0.667 | 0.91 | 0.529 | 0.0663 | 0.0759
NCI-H1793 | 0.848 | – | 0.904 | 0.276 | 0.126 | 0.762 | – | 0.867 | 0.616 | 0.211 | 0.344 | 0.423 | 0.314 | 0.132 | 0.121 | – | – | – | – | –
EBC-1 | 0.756 | 0.67 | 0.229 | 0.0791 | 0.064 | – | – | – | – | – | – | – | – | – | – | 0.176 | 0.198 | 0.197 | 0.19 | 0.168
NCI-H1648 | 0.721 | 0.822 | 0.799 | 0.238 | 0.267 | 0.62 | 0.592 | 0.753 | 0.468 | 0.334 | – | – | – | – | – | – | – | – | – | –
NCI-H1299 | 0.98 | 0.917 | 1.03 | 0.239 | 0.103 | – | – | – | – | – | – | – | – | – | – | 0.918 | 0.944 | 0.959 | 0.921 | 0.492
